# Measured values as given in the supplement of paper PMC10307832.
# Experiments:
# Test in all cases: relative viability (nuclei count vs DMSO), 5 days (fraction); higher = more cells survive
# 201T = test system: 201T
# Outline: (§1)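 Medians of duplicate plates are given as relative viability. That measure is the nuclei count in treated wells divided by the count in vehicle wells. Counts were taken on 4× images of lung cancer cell lines in 1536-well plates, 5 days after pin-tool dosing the day after seeding with one drug alone or a fixed anchor-drug dose plus five library-drug doses (not always all listed) in √10 steps.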
# BEN = test system: BEN
# Outline: as §1
# EPLC-272H = test system: EPLC-272H
# Outline: as §1
# HCC-15 = test system: HCC-15
# Outline: as §1
# HCC-78 = test system: HCC-78
# Outline: as §1
# LCLC-97TM1 = test system: LCLC-97TM1
# Outline: as §1
# LU99A = test system: LU99A
# Outline: as §1
# NCI-H1355 = test system: NCI-H1355
# Outline: as §1
# NCI-H1395 = test system: NCI-H1395
# Outline: as §1
# NCI-H2009 = test system: NCI-H2009
# Outline: as §1
# NCI-H2085 = test system: NCI-H2085
# Outline: as §1
# NCI-H2126 = test system: NCI-H2126
# Outline: as §1
# NCI-H2228 = test system: NCI-H2228
# Outline: as §1
# NCI-H2342 = test system: NCI-H2342
# Outline: as §1
# NCI-H23 = test system: NCI-H23
# Outline: as §1
# NCI-H2405 = test system: NCI-H2405
# Outline: as §1
# NCI-H322M = test system: NCI-H322M
# Outline: as §1
# NCI-H460 = test system: NCI-H460
# Outline: as §1
# NCI-H647 = test system: NCI-H647
# Outline: as §1
# NCI-H650 = test system: NCI-H650
# Outline: as §1
# NCI-H661 = test system: NCI-H661
# Outline: as §1
# NCI-H838 = test system: NCI-H838
# Outline: as §1
# PC-14 = test system: PC-14
# Outline: as §1
structure (smiles),measurement,setting,value
Cc1csc(=NC2CCCCC2)n1/N=C/c1ccc(O)c(O)c1O [MIM1] + COc1cccc2cc(-c3nc([C@H]4CC[C@H](C(=O)O)CC4)n4ncnc(N)c34)[nH]c12 [OSI-027] (partner 0.5 µM),relative viability,201T; first compound 0.2 µM,0.739
same,relative viability,201T; first compound 0.6325 µM,0.834
same,relative viability,201T; first compound 2 µM,0.745
same,relative viability,201T; first compound 6.325 µM,0.478
same,relative viability,201T; first compound 20 µM,0.272
same,relative viability,BEN; first compound 0.2 µM,0.309
same,relative viability,BEN; first compound 0.6325 µM,0.315
same,relative viability,BEN; first compound 2 µM,0.28
same,relative viability,BEN; first compound 6.325 µM,0.318
same,relative viability,BEN; first compound 20 µM,0.298
same,relative viability,EPLC-272H; first compound 0.2 µM,0.254
same,relative viability,EPLC-272H; first compound 0.6325 µM,0.269
same,relative viability,EPLC-272H; first compound 2 µM,0.308
same,relative viability,EPLC-272H; first compound 6.325 µM,0.24
same,relative viability,EPLC-272H; first compound 20 µM,0.141
same,relative viability,HCC-15; first compound 0.2 µM,0.747
same,relative viability,HCC-15; first compound 2 µM,0.778
same,relative viability,HCC-15; first compound 6.325 µM,0.469
same,relative viability,HCC-15; first compound 20 µM,0.102
same,relative viability,HCC-78; first compound 0.2 µM,0.365
same,relative viability,HCC-78; first compound 0.6325 µM,0.356
same,relative viability,HCC-78; first compound 2 µM,0.303
same,relative viability,HCC-78; first compound 6.325 µM,0.384
same,relative viability,HCC-78; first compound 20 µM,0.468
same,relative viability,LCLC-97TM1; first compound 0.2 µM,0.437
same,relative viability,LCLC-97TM1; first compound 0.6325 µM,0.455
same,relative viability,LCLC-97TM1; first compound 2 µM,0.508
same,relative viability,LCLC-97TM1; first compound 6.325 µM,0.503
same,relative viability,LCLC-97TM1; first compound 20 µM,0.193
same,relative viability,LU99A; first compound 0.2 µM,0.274
same,relative viability,LU99A; first compound 0.6325 µM,0.29
same,relative viability,LU99A; first compound 2 µM,0.273
same,relative viability,LU99A; first compound 6.325 µM,0.288
same,relative viability,LU99A; first compound 20 µM,0.233
same,relative viability,NCI-H1355; first compound 0.2 µM,0.409
same,relative viability,NCI-H1355; first compound 0.6325 µM,0.366
same,relative viability,NCI-H1355; first compound 2 µM,0.399
same,relative viability,NCI-H1355; first compound 6.325 µM,0.372
same,relative viability,NCI-H1355; first compound 20 µM,0.253
same,relative viability,NCI-H1395; first compound 0.2 µM,0.592
same,relative viability,NCI-H1395; first compound 0.6325 µM,0.63
same,relative viability,NCI-H1395; first compound 2 µM,0.618
same,relative viability,NCI-H1395; first compound 6.325 µM,0.508
same,relative viability,NCI-H1395; first compound 20 µM,0.374
same,relative viability,NCI-H2009; first compound 0.2 µM,0.697
same,relative viability,NCI-H2009; first compound 0.6325 µM,0.685
same,relative viability,NCI-H2009; first compound 2 µM,0.684
same,relative viability,NCI-H2009; first compound 6.325 µM,0.424
same,relative viability,NCI-H2009; first compound 20 µM,0.142
same,relative viability,NCI-H2085; first compound 0.2 µM,0.676
same,relative viability,NCI-H2085; first compound 0.6325 µM,0.808
same,relative viability,NCI-H2085; first compound 2 µM,0.712
same,relative viability,NCI-H2085; first compound 6.325 µM,0.565
same,relative viability,NCI-H2085; first compound 20 µM,0.446
same,relative viability,NCI-H2126; first compound 0.2 µM,0.758
same,relative viability,NCI-H2126; first compound 0.6325 µM,0.672
same,relative viability,NCI-H2126; first compound 2 µM,0.732
same,relative viability,NCI-H2126; first compound 6.325 µM,0.657
same,relative viability,NCI-H2126; first compound 20 µM,0.466
same,relative viability,NCI-H2228; first compound 0.2 µM,0.773
same,relative viability,NCI-H2228; first compound 0.6325 µM,0.502
same,relative viability,NCI-H2228; first compound 2 µM,0.653
same,relative viability,NCI-H2228; first compound 6.325 µM,0.217
same,relative viability,NCI-H2228; first compound 20 µM,0.137
same,relative viability,NCI-H2342; first compound 0.2 µM,0.675
same,relative viability,NCI-H2342; first compound 0.6325 µM,0.59
same,relative viability,NCI-H2342; first compound 2 µM,0.663
same,relative viability,NCI-H2342; first compound 6.325 µM,0.633
same,relative viability,NCI-H2342; first compound 20 µM,0.728
same,relative viability,NCI-H23; first compound 0.2 µM,0.53
same,relative viability,NCI-H23; first compound 2 µM,0.563
same,relative viability,NCI-H23; first compound 6.325 µM,0.306
same,relative viability,NCI-H23; first compound 20 µM,0.156
same,relative viability,NCI-H2405; first compound 0.2 µM,0.638
same,relative viability,NCI-H2405; first compound 0.6325 µM,0.666
same,relative viability,NCI-H2405; first compound 2 µM,0.637
same,relative viability,NCI-H2405; first compound 6.325 µM,0.553
same,relative viability,NCI-H2405; first compound 20 µM,0.434
same,relative viability,NCI-H322M; first compound 0.2 µM,0.593
same,relative viability,NCI-H322M; first compound 0.6325 µM,0.526
same,relative viability,NCI-H322M; first compound 2 µM,0.543
same,relative viability,NCI-H322M; first compound 6.325 µM,0.508
same,relative viability,NCI-H322M; first compound 20 µM,0.288
same,relative viability,NCI-H460; first compound 0.2 µM,0.651
same,relative viability,NCI-H460; first compound 0.6325 µM,0.66
same,relative viability,NCI-H460; first compound 2 µM,0.42
same,relative viability,NCI-H460; first compound 6.325 µM,0.423
same,relative viability,NCI-H460; first compound 20 µM,0.0316
same,relative viability,NCI-H647; first compound 0.2 µM,0.708
same,relative viability,NCI-H647; first compound 0.6325 µM,0.658
same,relative viability,NCI-H647; first compound 6.325 µM,0.557
same,relative viability,NCI-H647; first compound 20 µM,0.43
same,relative viability,NCI-H650; first compound 0.2 µM,0.563
same,relative viability,NCI-H650; first compound 0.6325 µM,0.414
same,relative viability,NCI-H650; first compound 2 µM,0.484
same,relative viability,NCI-H650; first compound 6.325 µM,0.533
same,relative viability,NCI-H650; first compound 20 µM,0.36
same,relative viability,NCI-H661; first compound 0.2 µM,0.756
same,relative viability,NCI-H661; first compound 0.6325 µM,0.684
same,relative viability,NCI-H661; first compound 2 µM,0.636
same,relative viability,NCI-H661; first compound 6.325 µM,0.534
same,relative viability,NCI-H661; first compound 20 µM,0.31
same,relative viability,NCI-H838; first compound 0.2 µM,0.469
same,relative viability,NCI-H838; first compound 0.6325 µM,0.428
same,relative viability,NCI-H838; first compound 2 µM,0.397
same,relative viability,NCI-H838; first compound 6.325 µM,0.373
same,relative viability,NCI-H838; first compound 20 µM,0.169
same,relative viability,PC-14; first compound 0.2 µM,0.785
same,relative viability,PC-14; first compound 0.6325 µM,0.846
same,relative viability,PC-14; first compound 2 µM,0.499
same,relative viability,PC-14; first compound 6.325 µM,0.656
same,relative viability,PC-14; first compound 20 µM,0.0965
